Data: ChEMBL document CHEMBL3997829, “Discovery of novel substituted octahydropyrrolo[3,4-c]pyrroles as dual orexin receptor antagonists for insomnia treatment” (Bioorg Med Chem Lett, 2017)
≈ marks a conversion by molar mass, not a printed value.

Assays:
[1] = biological target: T1, Orexin/Hypocretin receptor type 1 (Homo sapiens, UniProt O43613); assay: Antagonist activity at human orexin 1 receptor expressed in HEK293 cells assessed as inhibition of orexin-induced calcium mobilization after 60 mins by FLIPR assay; format: functional, cell-based
T1 sequence (O43613 whole entry): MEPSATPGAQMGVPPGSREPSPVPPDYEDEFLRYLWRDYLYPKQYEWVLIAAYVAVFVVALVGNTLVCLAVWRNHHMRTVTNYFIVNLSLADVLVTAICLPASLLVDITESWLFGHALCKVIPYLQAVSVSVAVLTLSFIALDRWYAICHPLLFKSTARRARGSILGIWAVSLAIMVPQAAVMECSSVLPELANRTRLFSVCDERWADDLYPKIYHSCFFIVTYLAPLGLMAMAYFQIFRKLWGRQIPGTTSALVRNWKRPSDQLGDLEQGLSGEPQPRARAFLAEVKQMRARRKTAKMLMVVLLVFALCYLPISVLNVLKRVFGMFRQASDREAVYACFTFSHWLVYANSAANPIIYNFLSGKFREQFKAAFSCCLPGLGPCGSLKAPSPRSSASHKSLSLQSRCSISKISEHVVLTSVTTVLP

Orexin receptor type 2 = biological target: T2, Orexin receptor type 2 (Homo sapiens, UniProt O43614); assay: Antagonist activity at human orexin 2 receptor expressed in HEK293 cells assessed as inhibition of orexin-induced calcium mobilization after 60 mins by FLIPR assay; format: functional, cell-based
T2 sequence (O43614 whole entry): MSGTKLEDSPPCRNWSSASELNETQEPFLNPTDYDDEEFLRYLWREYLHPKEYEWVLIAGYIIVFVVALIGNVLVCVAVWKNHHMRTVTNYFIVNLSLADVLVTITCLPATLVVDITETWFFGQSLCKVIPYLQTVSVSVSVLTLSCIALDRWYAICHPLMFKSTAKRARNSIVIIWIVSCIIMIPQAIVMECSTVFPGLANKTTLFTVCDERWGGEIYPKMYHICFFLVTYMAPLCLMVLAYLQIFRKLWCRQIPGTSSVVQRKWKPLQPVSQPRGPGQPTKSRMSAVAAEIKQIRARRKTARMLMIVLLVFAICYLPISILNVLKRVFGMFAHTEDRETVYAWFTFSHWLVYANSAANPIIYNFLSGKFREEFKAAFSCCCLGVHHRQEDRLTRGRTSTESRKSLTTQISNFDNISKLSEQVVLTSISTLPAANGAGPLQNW

[2] = Thermodynamic solubility of the compound in phosphate buffer at pH 7.4 by HPLC method; format: physicochemical; details: read-out: Therm_solubility
[3] = Plasma concentration in Sprague-Dawley rat at 10 mg/kg, po at 0.3 hrs; format: ADME, organism-based
[4] = Plasma concentration in Sprague-Dawley rat at 10 mg/kg, po at 1 hr; format: ADME, organism-based
[5] = Plasma concentration in Sprague-Dawley rat at 10 mg/kg, po at 4 hrs; format: ADME, organism-based
Brain [6] = assay: Drug uptake in Sprague-Dawley rat brain at 10 mg/kg, po at 0.3 hrs; format: ADME, organism-based; details: in vivo
Brain [7] = assay: Drug uptake in Sprague-Dawley rat brain at 10 mg/kg, po at 1 hr; format: ADME, organism-based; details: in vivo
Brain [8] = assay: Drug uptake in Sprague-Dawley rat brain at 10 mg/kg, po at 4 hrs; format: ADME, organism-based; details: in vivo
[9] = Ratio of drug level in brain to plasma in Sprague-Dawley rat at 10 mg/kg, po at 0.5 hrs; format: ADME, organism-based; details: read-out: BPR
[10] = Ratio of drug level in brain to plasma in Sprague-Dawley rat at 10 mg/kg, po at 1 hr; format: ADME, organism-based; details: read-out: BPR
[11] = Ratio of drug level in brain to plasma in Sprague-Dawley rat at 10 mg/kg, po at 4 hrs; format: ADME, organism-based; details: read-out: BPR
[12] = Clearance in Sprague-Dawley rat at 2 mg/kg, iv; format: ADME, organism-based; details: in vivo
[13] = Half life in Sprague-Dawley rat at 2 mg/kg, iv; format: ADME, organism-based; details: in vivo
[14] = AUC in Sprague-Dawley rat at 15 mg/kg, po; format: ADME, organism-based; details: in vivo
[15] = Cmax in Sprague-Dawley rat at 15 mg/kg, po; format: ADME, organism-based; set-up: dose 15 mg/kg, route oral; details: in vivo
[16] = Tmax in Sprague-Dawley rat at 15 mg/kg, po; format: ADME, organism-based; details: in vivo
[17] = Oral bioavailability in Sprague-Dawley rat at 15 mg/kg; format: ADME, organism-based; details: in vivo
[18] = biological target: Voltage-gated inwardly rectifying potassium channel KCNH2 (Homo sapiens, UniProt Q12809); assay: Inhibition of human ERG
Sequence of Voltage-gated inwardly rectifying potassium channel KCNH2 (Q12809 whole entry): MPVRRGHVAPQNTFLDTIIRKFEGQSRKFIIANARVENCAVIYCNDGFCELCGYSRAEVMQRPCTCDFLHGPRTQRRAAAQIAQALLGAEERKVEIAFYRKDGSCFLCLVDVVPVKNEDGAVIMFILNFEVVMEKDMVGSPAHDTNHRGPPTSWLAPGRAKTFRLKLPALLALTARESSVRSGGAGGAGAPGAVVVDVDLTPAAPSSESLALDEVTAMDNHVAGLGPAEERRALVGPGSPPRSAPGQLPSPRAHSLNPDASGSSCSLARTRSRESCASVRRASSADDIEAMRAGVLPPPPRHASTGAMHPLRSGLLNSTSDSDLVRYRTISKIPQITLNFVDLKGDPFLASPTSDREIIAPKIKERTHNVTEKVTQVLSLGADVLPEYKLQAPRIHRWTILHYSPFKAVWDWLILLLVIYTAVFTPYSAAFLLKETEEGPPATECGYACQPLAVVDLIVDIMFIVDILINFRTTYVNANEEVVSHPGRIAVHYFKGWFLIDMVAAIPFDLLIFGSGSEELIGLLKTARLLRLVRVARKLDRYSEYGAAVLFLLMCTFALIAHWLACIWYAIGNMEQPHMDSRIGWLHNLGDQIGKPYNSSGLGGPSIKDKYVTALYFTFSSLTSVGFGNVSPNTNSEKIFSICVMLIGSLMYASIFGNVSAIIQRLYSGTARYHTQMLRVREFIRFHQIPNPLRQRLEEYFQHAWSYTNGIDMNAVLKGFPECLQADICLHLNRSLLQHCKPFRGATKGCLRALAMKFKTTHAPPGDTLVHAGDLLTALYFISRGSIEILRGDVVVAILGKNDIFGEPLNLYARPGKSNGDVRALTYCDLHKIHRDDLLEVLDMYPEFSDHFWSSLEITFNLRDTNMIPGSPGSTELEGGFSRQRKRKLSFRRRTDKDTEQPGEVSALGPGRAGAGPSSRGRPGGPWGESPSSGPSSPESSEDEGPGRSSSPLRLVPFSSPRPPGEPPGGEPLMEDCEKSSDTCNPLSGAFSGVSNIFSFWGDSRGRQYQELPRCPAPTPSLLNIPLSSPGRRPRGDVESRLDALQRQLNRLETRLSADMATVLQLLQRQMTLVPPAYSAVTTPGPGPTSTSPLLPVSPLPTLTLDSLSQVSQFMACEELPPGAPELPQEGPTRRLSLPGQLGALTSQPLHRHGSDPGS

Rattus norvegicus [19] = assay: Sleep promoting activity in Sprague-Dawley rat assessed as decrease in active wake time at 90 mg/kg, po measured over 2 hrs by electroencephalogram method; format: functional
Rattus norvegicus [20] = assay: Sleep promoting activity in Sprague-Dawley rat assessed as effect on rapid eye movement sleep time at 90 mg/kg, po measured over 2 hrs by electroencephalogram method; format: functional
Rattus norvegicus [21] = assay: Sleep promoting activity in Sprague-Dawley rat assessed as increase in slow wave sleep time at 90 mg/kg, po measured over 2 hrs by electroencephalogram method; format: functional

SMILES | IC50 [1] [nM] | IC50 (Orexin receptor type 2) [nM] | also measured
Cc1ccc(-n2nccn2)c(C(=O)N2C[C@@H]3CN(c4nc5cc(OC(F)(F)F)ccc5o4)C[C@@H]3C2)c1 | 3920 | 4710 | –
COc1ccc(-n2nccn2)c(C(=O)N2C[C@@H]3CN(c4nc5cc(Cl)ccc5o4)C[C@@H]3C2)c1 | 517 | 387 | –
Cc1ccc(-n2nccn2)c(C(=O)N2C[C@@H]3CN(c4ncnc5ccccc45)C[C@@H]3C2)c1 | > 10000 | 1680 | –
Cc1ccc(-n2nccn2)c(C(=O)N2C[C@@H]3CN(c4ncc5cc(F)ccc5n4)C[C@@H]3C2)c1 | 216 | 108 | solubility thermodynamic [2]: 2.6 µM (≈ 1.15 µg/mL); concentration at 0.3 h [3]: 567 nM; concentration at 1 h [4]: 328 nM; concentration at 4 h [5]: 24 nM; Drug uptake (Brain [6]): 80 nmol/kg; Drug uptake (Brain [7]): 43 nmol/kg; Drug uptake (Brain [8]; BLD = below limit of detection): Bld; Kp at 0.5 h [9]: 0.14; Kp at 1 h [10]: 0.13
Cc1ccc(-n2nccn2)c(C(=O)N2C[C@@]3(C)CN(c4nc5cc(Cl)ccc5o4)C[C@@]3(C)C2)c1 | 1890 | 5990 | –
Cc1ccc(-n2nccn2)c(C(=O)N2C[C@@H]3CN(c4nc5cc(F)ccc5o4)C[C@@H]3C2)c1 | 293 | 131 | solubility thermodynamic [2]: < 2 µM; concentration at 0.3 h [3]: 1260 nM; concentration at 1 h [4]: 859 nM; concentration at 4 h [5]: 77 nM; Drug uptake (Brain [6]): 74 nmol/kg; Drug uptake (Brain [7]): 42 nmol/kg; Drug uptake (Brain [8]; BLD = below limit of detection): Bld; Kp at 0.5 h [9]: 0.06; Kp at 1 h [10]: 0.05
Cc1ccc(-n2nccn2)c(C(=O)N2CCCC3CN(c4nc5cc(Cl)ccc5o4)CC32)c1 (stereo not drawn) | > 10000 | > 10000 | –
Cc1ccc(-n2nccn2)c(C(=O)N2CCC3CN(c4nc5cc(Cl)ccc5o4)CC32)c1 (stereo not drawn) | 2970 | 354 | –
Cc1ccc(-n2nccn2)c(C(=O)N2CC3CCCN(c4nc5cc(Cl)ccc5o4)C3C2)c1 (stereo not drawn) | > 10000 | > 10000 | –
Cc1ccc(-n2nccn2)c(C(=O)N2C[C@@H]3CN(c4nc(-c5cccc(Cl)c5)co4)C[C@@H]3C2)c1 | 1010 | 2790 | –
O=C(c1cc(F)ccc1-n1nccn1)N1C[C@@H]2CN(c3nc4cc(Cl)ccc4o3)C[C@@H]2C1 | 1960 | 791 | –
O=C(c1cc(OC(F)(F)F)ccc1-n1nccn1)N1C[C@@H]2CN(c3nc4cc(Cl)ccc4o3)C[C@@H]2C1 | 502 | 1520 | –
COc1ccc2oc(N3C[C@H]4CN(C(=O)c5cc(C)ccc5-n5nccn5)C[C@H]4C3)nc2c1 | 401 | 311 | –
O=C(c1cc(C(F)(F)F)ccc1-n1nccn1)N1C[C@@H]2CN(c3nc4cc(Cl)ccc4o3)C[C@@H]2C1 | 5020 | 1040 | –
Cc1ccc(-n2nccn2)c(C(=O)N2C[C@@H]3CN(c4nc5ccccc5n4C)C[C@@H]3C2)c1 | 1640 | 775 | –
Cc1ccc(-n2nccn2)c(C(=O)N2C[C@@H]3CN(c4nc(C)c(C)c(C)n4)C[C@@H]3C2)c1 | > 10000 | 4850 | –
Cc1ccc(-n2nccn2)c(C(=O)N2C[C@@H]3CN(c4nc5cc(C)ccc5o4)C[C@@H]3C2)c1 | 113 | 211 | –
Cc1ccc(-n2nccn2)c(C(=O)N2C[C@@H]3CN(c4nc5cc(Cl)ccc5s4)C[C@@H]3C2)c1 | 327 | 1190 | –
Cc1ccc(-n2nccn2)c(C(=O)N2CC3CN(c4nc5cc(Cl)ccc5o4)CC3(C)C2)c1 (stereo not drawn) | 736 | 1090 | –
Cc1ccc(-n2nccn2)c(C(=O)N2C[C@@H]3CN(c4nc5cc(C(F)(F)F)ccc5o4)C[C@@H]3C2)c1 | 1780 | 508 | –
Cc1ccc(-n2nccn2)c(C(=O)N2CC3CCN(c4nc5cc(Cl)ccc5o4)C3C2)c1 (stereo not drawn) | > 10000 | > 10000 | –
Cc1ccc(-n2nccn2)c(C(=O)N2C[C@H]3CN(Cc4nc5cc(Cl)ccc5o4)C[C@H]3C2)c1 | 3240 | 1820 | –
Cc1ccc(-n2nccn2)c(C(=O)N2C[C@@H]3CN(c4nc5cc(Cl)ccc5o4)C[C@@H]3C2)c1 | 226 | 206 | solubility thermodynamic [2]: < 2 µM; concentration at 0.3 h [3]: 3370 nM; concentration at 1 h [4]: 2500 nM; concentration at 4 h [5]: 409 nM; Drug uptake (Brain [6]): 643 nmol/kg; Drug uptake (Brain [7]): 376 nmol/kg; Drug uptake (Brain [8]): 111 nmol/kg; Kp at 0.5 h [9]: 0.19; Kp at 1 h [10]: 0.15; Kp at 4 h [11]: 0.27; clearance [12]: 32 mL/min/kg; half-life [13]: 43.8 min; AUC [14]: 5.4 µM·h; Cmax [15]: 2100 nM; Tmax [16]: 25.2 min; bioavailability [17]: 27%
O=C(c1cc(Cl)ccc1-n1nccn1)N1C[C@@H]2CN(c3nc4cc(Cl)ccc4o3)C[C@@H]2C1 | > 10000 | 1270 | –
Cc1ccc(-n2nccn2)c(C(=O)N2C[C@@]3(F)CN(c4nc5ccccc5o4)C[C@@]3(F)C2)c1 | 908 | 575 | IC50 [18]: > 30000 nM
Cc1ccc(-n2nccn2)c(C(=O)N2CCN(c3nc4cc(Cl)ccc4o3)CC[C@H]2C)c1 [SUVOREXANT] | – | – | Time (Rattus norvegicus [19]): 46.9 min; Time (Rattus norvegicus [20]): 13.6 min; Time (Rattus norvegicus [21]): 33.5 min
O=C(c1ccccc1-n1nccn1)N1C[C@@H]2CN(c3nc4cc(Cl)ccc4o3)C[C@@H]2C1 | 489 | 238 | –
Cc1ccc(-n2nccn2)c(C(=O)N2C[C@@]3(F)CN(c4nc5cc(Cl)ccc5o4)C[C@@]3(F)C2)c1 | 759 | 639 | IC50 [18]: > 30000 nM
